Source: patent US10376561B1, “Fasciola hepatica fatty acid binding protein a novel anti-inflammatory molecule” (priority 2015, dated 2019)

Key:
TLR4 = test: NF-κB activation in TLR4-transfected HEK cells (SEAP, A655); format: cell-based, human; conditions: PMB 100 μM; LPS 5 μg/ml
Description: To investigate the mechanism of interaction between Fh12 and TLR4 we used Human Embryonic Kidney 293 cells (HEK293, InvivoGen). These cells (HEK293-TLR4) are co-transfected with genes encoding cluster differentiation antigen-14 (CD14), myeloid differentiation protein-2 (MD2), toll-like receptor-4 (TLR4) co-receptor, and a SEAP reporter gene (HEK293-TLR4). Cells were maintained in DMEM supplemented with 4.5 g/L glucose, 10% fetal bovine serum (FBS), 50 U/ml penicillin, 50 μg/ml streptomycin, 100 μg/ml Normocin™ and 2 mM L-glutamine. For all experiments a cell suspension was prepared using HEK-Blue™ Detection medium at 14×10^4 cells/ml. For stimulation experiments, cells were seeded at 2.52×10^4 cells/well in 96-well flat-bottom plates and treated with Fh12 (from 0.62 to 10 μg/ml) or LPS (5 μg/ml), and incubated at 37° C., 5% CO2 for 24 h. In the inhibition experiments, cells were cultured with Fh12 (0.6 to 10 μg/ml) 30 min prior LPS (5 μg/ml) stimulation. […] All readings were done at 655 nm after 24 h of LPS-stimulation. […] The percent of reduction (R %) of the absorbance values was calculated by the formula R (%)=100−[(A−C)×100)/(B−C)], where A is the mean A655 of three replicates obtained when cells were stimulated with Fh12, and B is the mean A665 value obtained when cells were exposed to LPS, and C is the mean A655 of three replicates obtained when cells were stimulated with PBS. […]

human LBP = molecular target: T1, human LBP (Homo sapiens, UniProt P18428); test: LPS-binding protein (LBP)/LPS interaction assay (Endoblock LBP ELISA); conditions: Polymyxin-B 100 μM
T1 construct: purchased Hycult Biotech
T1 sequence (P18428 26-481): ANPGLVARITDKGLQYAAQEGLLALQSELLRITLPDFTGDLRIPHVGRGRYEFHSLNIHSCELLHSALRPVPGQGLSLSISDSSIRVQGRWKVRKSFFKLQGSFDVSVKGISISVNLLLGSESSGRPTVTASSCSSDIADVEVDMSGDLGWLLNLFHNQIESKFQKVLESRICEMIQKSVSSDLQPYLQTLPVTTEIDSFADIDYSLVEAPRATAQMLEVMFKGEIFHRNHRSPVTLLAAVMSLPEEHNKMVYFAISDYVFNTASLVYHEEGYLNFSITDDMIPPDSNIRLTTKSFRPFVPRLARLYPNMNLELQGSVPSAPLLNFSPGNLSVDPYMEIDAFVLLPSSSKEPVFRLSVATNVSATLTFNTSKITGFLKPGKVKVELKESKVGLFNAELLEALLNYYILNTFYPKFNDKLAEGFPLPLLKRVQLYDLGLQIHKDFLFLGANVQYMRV
Description: The Endoblock LBP ELISA test kit (Hycult Biotech, PA, USA) was used according to the manufacturer's instructions to investigate whether Fh12 disrupts the interaction between LPS and LBP. Briefly, binding of biotinylated LPS to pre-captured human LBP was assessed using streptavidin peroxidase, followed by addition of tetramethylbenzidine. Fh12 (0.05-10 μg/ml) was pre-incubated for 30 min with biotinylated-LPS and added to wells pre-coated with anti-LBP+LBP. PMB (0.2-100 μM), which competes with LBP for binding to LPS, was used as a control for inhibition by pre-incubation with biotinylated-LPS.
To investigate the mechanism through which Fh12 specifically blocks the interaction between LPS and TLR4, we firstly assessed whether Fh12 exposure alters either the interaction of LPS with […] (LBP), or the expression of any TLR4 complex component. To assess whether Fh12 prevents binding of LPS to LBP, we used an LBP-ELISA kit, which detects binding of biotinylated LPS to LBP. PMB, which competes with LBP for binding to LPS, was used as a positive control. A lipid-binding protein assay (Endoblock) was used to investigate whether Fh12 disrupts the interaction between LPS and LBP. Polymyxin-B (100 μM), which is known to compete with LBP for binding to LPS, blocked LBP/LPS binding.

Substance: polymyxin-B [PMB]
- NF-κB expression, antagonist control (TLR4): completely suppressed
- LBP/LPS binding, positive control (human LBP): blocked
